According to patent US10406227B2, “Photoactivated molecules for light-induced modulation of the activity of electrically excitable cells and methods of using same” (University of Southern California, priority 2012, dated 2019):

Legend:
[1] = Time-resolved emission spectroscopy (luminescence decay kinetics); type: physicochemical; conditions: degassed dichloromethane; excited 355 nm, monitored 560 nm
Description: Time-resolved emission spectroscopy was used to characterize the MLCT excited state of the D-B-A complex. Luminescence decay kinetics were recorded in degassed dichloromethane. The D-B-A complex was excited at 355 nm with an 8-ns laser pulse and luminescence was monitored at 560 nm. […] For comparison, the MLCT lifetime of the reference complex, [Re(CO)3(bpy)(py)]+, determined under identical experimental conditions, is 550 ns.
While the rate of intramolecular ET is concentration independent, intermolecular quenching processes vary predictably with concentration. As such, it is possible to separate the two quenching mechanisms and obtain rate constants for each. Time-resolved luminescence measurements at a series of D-B-A concentrations allow a second order intermolecular quenching rate to be determined. As the concentration was increased, shorter lifetimes were recorded in both dichloromethane and acetonitrile.
This lifetime includes both the natural decay of the photoexcited rhenium as well as quenching through intramolecular electron transfer. […] As the difference in lifetime of the D-B-A and model complex is quite small, these values should be considered upper bounds.

chromaffin cells = assay: Cell-attached membrane perforation test (capacitive charging transient); type: cell-based, mouse; conditions: positive control in pipette; within 5 minutes of gigaseal formation
Description: FIGS. 5A-5H depict data from various experiments related to characteristics of RubpyC17-loaded cells. […] Inset images shown to the right of trace confirmed proper integration of RubpyC17 in patched cells. FIGS. 5C-5E show the light-induced action potential firing in chromaffin cells was not due to biophysical changes in voltage-gated ion channels as there were no significant changes in current-voltage relationships (C-D) nor in steady-state activation curve (E) in RubpyC17-loaded chromaffin cells before (open circle) or during ([…]) light illumination. […] Peak inward currents from each stimulation jump were plotted against corresponding stimulating voltages (n=6). […] Data from representative cell is shown (n=5). […] Currents resulting from capacitor-like behavior of chromaffin cell membranes during hyperpolarizing jumps to −85 mV from a resting membrane potential of −80 mV were recorded 5 min following giga-seal formation for amphoterecin B (bottom trace) or 10 min following giga-seal formation for RubpyC17 (top trace).
Finally, to test whether illumination of RubpyC17 incorporated in cell membranes causes nonspecific membrane poration or other damage, 18 μM RubpyC17 was loaded inside a patch pipette and attached to a cell (gigaseal formation) in the cell-attached configuration. […]

| Structure (SMILES) | luminescence (MLCT) lifetime [1] | capacitive charging transient (membrane perforation) (chromaffin cells) |
| --- | --- | --- |
| [C-]#[O+].[C-]#[O+].[C-]#[O+].[Re+].c1ccc(-c2ccccn2)nc1.c1ccncc1 [[Re(CO)3(bpy)(py)]+] | 550 ns |  |
| C[C@@H]1[C@H](O)[C@@H](C)/C=C/C=C/C=C/C=C/C=C/C=C/C=C/[C@H](O[C@@H]2O[C@H](C)[C@@H](O)[C@H](N)[C@@H]2O)C[C@@H]2O[C@](O)(C[C@@H](O)C[C@@H](O)[C@H](O)CC[C@@H](O)C[C@@H](O)CC(=O)O[C@H]1C)C[C@H](O)[C@H]2C(=O)O [amphotericin B, reference compound] |  | a sizable capacitive charging transient |
